In patent US11312758B2, “Peptides with vasodilatory and/or diuretic functions” (National University of Singapore, priority 2016, dated 2022):
Positions of bridges follow the written chain, without caps; N, C: chain ends. Residues, ends and D or L forms follow the SMILES beside them.

Key:
[1] = target: T1, rat NPR-A (Rattus norvegicus, UniProt P18910); assay: Whole cell cGMP assay, 30 min end-point dose-response in CHO-K1 cells transiently expressing NPR-A; assay type: cell-based
T1 construct: expressed in transfected cells; host or cells: CHO-K1
T1 sequence (P18910 29-1057): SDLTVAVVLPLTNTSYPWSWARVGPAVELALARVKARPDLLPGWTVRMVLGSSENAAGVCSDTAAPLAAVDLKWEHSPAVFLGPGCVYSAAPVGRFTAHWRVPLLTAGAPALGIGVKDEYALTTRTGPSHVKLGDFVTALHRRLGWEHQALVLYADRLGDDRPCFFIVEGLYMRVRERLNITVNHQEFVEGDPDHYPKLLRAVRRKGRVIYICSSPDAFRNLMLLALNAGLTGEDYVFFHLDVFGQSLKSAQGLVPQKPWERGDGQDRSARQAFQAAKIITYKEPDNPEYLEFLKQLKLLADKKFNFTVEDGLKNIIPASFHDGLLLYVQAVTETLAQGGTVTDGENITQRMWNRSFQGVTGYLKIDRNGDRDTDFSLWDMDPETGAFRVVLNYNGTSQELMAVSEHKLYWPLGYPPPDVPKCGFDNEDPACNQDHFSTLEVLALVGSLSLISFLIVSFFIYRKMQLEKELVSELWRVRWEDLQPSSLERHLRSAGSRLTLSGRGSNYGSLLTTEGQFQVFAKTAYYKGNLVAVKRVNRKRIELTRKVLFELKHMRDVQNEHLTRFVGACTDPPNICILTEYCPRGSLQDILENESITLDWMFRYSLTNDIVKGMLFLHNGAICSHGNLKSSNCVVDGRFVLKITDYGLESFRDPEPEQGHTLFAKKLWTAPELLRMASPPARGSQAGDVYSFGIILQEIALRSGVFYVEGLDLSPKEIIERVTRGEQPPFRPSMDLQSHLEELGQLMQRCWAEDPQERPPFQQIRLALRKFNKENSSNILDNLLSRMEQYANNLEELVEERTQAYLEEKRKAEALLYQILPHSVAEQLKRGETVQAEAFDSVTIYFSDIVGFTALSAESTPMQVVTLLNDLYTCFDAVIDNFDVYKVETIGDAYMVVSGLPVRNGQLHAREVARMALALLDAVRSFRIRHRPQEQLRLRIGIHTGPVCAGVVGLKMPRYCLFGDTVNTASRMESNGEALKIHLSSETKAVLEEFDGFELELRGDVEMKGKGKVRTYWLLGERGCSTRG
Procedure: (§1) The experiments were performed as described in Sridharan et al., [Biochem J 469 (2): 255-66 (2015)]. Dulbecco's modified Eagle's medium supplemented with 10% fetal bovine serum, 100 U/ml penicillin and 100 μg/ml streptomycin and 2 mM glutamine was used to grow CHO-K1 cells in a humidified incubator at 37° C. with 5% CO2. The cells were maintained by sub-culturing using 0.5% trypsin every three days. Cells (1×10^5) were seeded per well in 24-well plate and grown for 16 h. Cells in each well were transfected with 0.8 μg of plasmid encoding rat NPR-A using 2 μl of Lipofectamine™ 2000 transfection reagent. Cells were treated with the peptides 24 h after transfection.
NPR-A transfected CHO-K1 cells were treated with varying concentrations of peptides (10 nM to 10 μM dissolved in basal media containing 0.5 mM IBMX) for 30 min. The end-point accumulation of cGMP was measured after cell-lysis with 200 μl of 0.1 N HCl using Enzo life sciences cGMP ELISA kit (manufacturer's protocol).

[2] = tested on: anesthetized male SD rats; assay: In-vivo activity assay: peptide infusion in anesthetized rats (MAP, HR, PP, urine flow); set-up: species or system rat
Procedure: Male Sprague-Dawley (SD) rats (220-280 g) were obtained from Invivos, Singapore. Animals were acclimatized in the Animal Holding unit, NUS for 3 days before the experiment. The experiments were conducted under the guidance and approval of Institutional Animal Care and Use Committee, NUS (041/12).
The experiments were performed as described in Sridharan et al., [Biochem J 469 (2): 255-66 (2015)]. In brief, animals were anesthetized with sodium pentobarbital (60-70 mg/kg) and catheters were inserted in femoral artery, vein and urinary bladder. The body temperature of the animals was maintained using a thermostatic heat pad at 37° C. Continuous infusions (2 ml/h) of 0.2% BSA saline (with or without peptide) was administered through the femoral vein while a pressure transducer attached to the femoral artery recorded on-line changes in mean arterial pressure (MAP), heart rate (HR) and pulse pressure (PP). Urine was collected and the volume was measured after every 10 min. Experiments encompassed control (2×10 min), experimental (1×10 min) and recovery (4×10 min) periods. All animals were euthanized at the end of the experiment in carbon-di-oxide chambers.

[3] = target: T1, rat NPR-A; assay: Time-chase study of cGMP accumulation (NPR-A activation kinetics) at EC50 concentration of peptide; assay type: cell-based
Procedure: as §1
Time-chase study was performed by treating the cells with EC50 concentration of the peptides. The reactions were terminated at the indicated time-points (0, 2, 5, 10, 20 and 30 min) by treating the cells with 0.1 N HCl. The cGMP concentration in the cell lysate was measured using cGMP ELISA kit (Enzo life sciences).

[4] = 2.0 nmol/kg/min infusion, listed as DRDAND
[5] = equimolar infusion (2 nmol/kg/min)

CC[C@H](C)[C@@H]1NC(=O)[C@H](CCCNC(=N)N)NC(=O)[C@H](CC(=O)O)NC(=O)[C@H](CCSC)NC(=O)[C@H](CCCNC(=N)N)NC(=O)[C@H](CCCNC(=N)N)NC(=O)[C@H](CC(=O)O)NC(=O)[C@H](Cc2ccccc2)NC(=O)[C@@H](NC(=O)[C@H](CO)NC(=O)[C@H](CO)NC(=O)[C@H](CCCNC(=N)N)NC(=O)[C@H](CCCNC(=N)N)NC(=O)[C@H](CC(C)C)NC(=O)[C@@H](N)CO)CSSC[C@@H](C(=O)N[C@@H](CC(N)=O)C(=O)N[C@@H](CO)C(=O)N[C@@H](Cc2ccccc2)C(=O)N[C@@H](CCCNC(=N)N)C(=O)N[C@@H](Cc2ccc(O)cc2)C(=O)O)NC(=O)CNC(=O)[C@H](CC(C)C)NC(=O)[C@H](CC(=O)O)NC(=O)[C@H](CO)NC(=O)[C@H](CCC(N)=O)NC(=O)[C@H](C)NC(=O)CNC1=O [^DRDANP] (H-SLRRSSCFDRRMDRIGAQSDLGCNSFRY-OH; disulfide 7-23; N-terminus assumed)
NPR-A activation potency, Ratio compared ANP [1]: 2.6 | fold drop in activity compared to ANP ([1]; cGMP response): 3 fold | NPR-A activation potency, Ratio compared wild type NPs ([1]; negative = more potent than wild type): 2.6 | Heart rate Peak response ([2]; 0.2 nmol/kg/min infusion): −37.5±9.5 BPM | Heart rate Peak time ([2]; 0.2 nmol/kg/min infusion): 30 min | Mean arterial pressure Peak response ([2]; 0.2 nmol/kg/min infusion): −12.9±1.5 mmHg | Mean arterial pressure Peak time ([2]; 0.2 nmol/kg/min infusion): 30 min | Pulse pressure Peak time ([2]; 0.2 nmol/kg/min infusion): 20 min | Urine flow rate Peak response ([2]; 0.2 nmol/kg/min infusion): <2 µL/min | diuresis ([2]; 0.2 nmol/kg/min infusion): failed to induce diuresis | HR Rate of change per unit change in MAP ([2]; 2 nmol/kg/min infusion): 4.5 | PP Rate of change per unit change in MAP ([2]; 2 nmol/kg/min infusion): 0.5 | Heart rate Peak response ([2]; 2.0 nmol/kg/min infusion): −66.6±14.6 BPM | Heart rate Peak time ([2]; 2.0 nmol/kg/min infusion): 30 min | Mean arterial pressure Peak response ([2]; 2.0 nmol/kg/min infusion): −18.3±2.3 mmHg | Mean arterial pressure Peak time ([2]; 2.0 nmol/kg/min infusion): 30 min | Pulse pressure Peak response ([2]; 2.0 nmol/kg/min infusion): −7.9±1.8 mmHg | Pulse pressure Peak time ([2]; 2.0 nmol/kg/min infusion): 20 min | Urine flow rate Peak Time ([2]; 2.0 nmol/kg/min infusion): 20 min | Urine flow rate Peak response ([2]; 2.0 nmol/kg/min infusion): 18.7 ± 0.7 µL/min | Heart rate Peak response [2, 4]: −66.6 ± 14.5 BPM | Mean arterial pressure Peak response [2, 4]: −18.4 ± 2.4 mmHg | Pulse pressure Peak response [2, 4]: −8.0 ± 1.8 mmHg | Urine flow rate Peak response [2, 4]: 18.8 ± 0.7 µL/min | diuresis compared to K-Ring^NSFRY [2, 5]: 2 fold | influence on HR compared to K-Ring^NSFRY [2, 5]: 2 fold | Rate of generation of cGMP, Ratio compared ANP [3]: 21.0 | Rate of generation of cGMP, Ratio compared wild type NPs [3]: 21.0 | times slower activation kinetics compared to the wild type (ANP) [3]: 2.6 times | Rate of generation of cGMP ([3]; EC50 concentration of peptide): 0.38 pmol cGMP/pmol peptide | time of peak / maximum accumulation of cGMP ([3]; EC50 concentration of peptide): 10 min
